{"source": "ChEMBL document CHEMBL5723583", "about": "“Data for DCP probe BAY-9835” (2024)", "key": {"[1]": {"target": "A disintegrin and metalloproteinase with thrombospondin motifs 7 (Homo sapiens, UniProt Q9UKP4)", "assay": "Biochemical enzymatic FRET assay (hADAMTS7) ( FRET substrate, HiLyteFluor-488 DELSSMVLELRGLRT-K(QXL520)-E-NH2 (custom synthesis by Anaspec) was used.)"}, "[2]": {"target": "A disintegrin and metalloproteinase with thrombospondin motifs 5 (Homo sapiens, UniProt Q9UNA0)", "assay": "IC50 of hADAMTS5 at 1.0 µM in the Bayer in-house protease panel"}, "[3]": {"target": "Disintegrin and metalloproteinase domain-containing protein 17 (Homo sapiens, UniProt P78536)", "sequence (P78536 whole entry, the tested form may be a part)": "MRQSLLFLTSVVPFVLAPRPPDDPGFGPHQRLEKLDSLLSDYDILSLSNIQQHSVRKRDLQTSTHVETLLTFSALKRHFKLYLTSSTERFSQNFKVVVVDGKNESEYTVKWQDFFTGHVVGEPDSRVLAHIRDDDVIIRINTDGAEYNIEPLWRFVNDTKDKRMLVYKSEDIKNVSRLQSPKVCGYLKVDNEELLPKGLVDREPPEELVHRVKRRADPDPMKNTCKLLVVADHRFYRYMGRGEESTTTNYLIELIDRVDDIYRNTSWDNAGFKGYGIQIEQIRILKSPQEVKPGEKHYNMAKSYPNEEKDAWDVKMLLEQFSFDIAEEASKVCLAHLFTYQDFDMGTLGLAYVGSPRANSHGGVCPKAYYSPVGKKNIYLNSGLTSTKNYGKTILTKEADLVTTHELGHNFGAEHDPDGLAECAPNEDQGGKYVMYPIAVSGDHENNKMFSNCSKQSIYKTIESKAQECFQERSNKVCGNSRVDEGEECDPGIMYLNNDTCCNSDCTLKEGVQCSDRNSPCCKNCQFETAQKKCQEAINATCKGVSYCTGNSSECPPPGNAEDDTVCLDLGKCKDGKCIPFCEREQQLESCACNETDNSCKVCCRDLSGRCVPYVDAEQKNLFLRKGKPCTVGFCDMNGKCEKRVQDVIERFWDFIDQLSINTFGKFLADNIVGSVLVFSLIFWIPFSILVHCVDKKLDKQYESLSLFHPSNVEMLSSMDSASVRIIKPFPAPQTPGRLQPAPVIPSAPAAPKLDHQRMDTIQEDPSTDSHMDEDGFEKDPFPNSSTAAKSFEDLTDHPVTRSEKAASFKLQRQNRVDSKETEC", "assay": "IC50 of hADAM17 at 1.0 µM in the Bayer in-house protease panel"}, "[4]": {"target": "Macrophage metalloelastase (Homo sapiens, UniProt P39900)", "assay": "IC50 of hMMP12 at 1.0 µM in the Bayer in-house protease panel"}, "[5]": {"target": "Aldo-keto reductase family 1 member B1 (Homo sapiens) (UniProt P15121)", "assay": "Inhibition of Aldose Reductase at 10.0 µM in the Eurofins-Panlabs selectivity screen", "conditions": "Rattus norvegicus; Compound concentration 10.0 uM"}, "[6]": {"target": "Sodium/potassium-transporting ATPase (Sus scrofa) (UniProt P05027+P05024+D2WKD8+D2WKD7+F1ST41)", "assay": "Inhibition of ATPase, Na+/K+, Heart, Pig at 10.0 µM in the Eurofins-Panlabs selectivity screen", "assay_type": "protein-complex assay", "conditions": "Compound concentration 10.0 uM"}, "[7]": {"target": "Prostaglandin G/H synthase 1 (Homo sapiens) (UniProt P23219)", "assay": "Inhibition of Cyclooxygenase COX-1 at 10.0 µM in the Eurofins-Panlabs selectivity screen", "conditions": "Compound concentration 10.0 uM"}, "[8]": {"target": "Prostaglandin G/H synthase 2 (Homo sapiens) (UniProt P35354)", "sequence (P35354 whole entry)": "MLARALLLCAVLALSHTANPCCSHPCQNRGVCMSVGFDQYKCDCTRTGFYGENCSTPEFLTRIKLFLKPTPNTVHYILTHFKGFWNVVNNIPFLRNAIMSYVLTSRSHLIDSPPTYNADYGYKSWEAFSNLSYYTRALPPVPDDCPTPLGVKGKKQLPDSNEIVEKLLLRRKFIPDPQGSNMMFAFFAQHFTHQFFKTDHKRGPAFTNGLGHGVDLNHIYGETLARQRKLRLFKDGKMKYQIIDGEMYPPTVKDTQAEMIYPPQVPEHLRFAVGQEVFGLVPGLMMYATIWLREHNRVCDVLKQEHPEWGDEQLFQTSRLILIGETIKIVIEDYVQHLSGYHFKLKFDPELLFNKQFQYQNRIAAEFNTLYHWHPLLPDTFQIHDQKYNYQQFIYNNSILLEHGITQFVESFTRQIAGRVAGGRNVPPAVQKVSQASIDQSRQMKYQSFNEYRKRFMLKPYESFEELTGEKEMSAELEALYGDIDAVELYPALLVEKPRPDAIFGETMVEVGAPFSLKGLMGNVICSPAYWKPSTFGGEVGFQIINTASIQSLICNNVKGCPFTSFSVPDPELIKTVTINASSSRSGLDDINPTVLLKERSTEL", "assay": "Inhibition of Cyclooxygenase COX-2 at 10.0 µM in the Eurofins-Panlabs selectivity screen", "conditions": "Compound concentration 10.0 uM"}, "[9]": {"target": "3',5'-cyclic-AMP phosphodiesterase 4D (Homo sapiens) (UniProt Q08499)", "assay": "Inhibition of Phosphodiesterase PDE4D2 at 10.0 µM in the Eurofins-Panlabs selectivity screen", "conditions": "Compound concentration 10.0 uM"}, "[10]": {"target": "Equilibrative nucleoside transporter 1/2/3/4 (Homo sapiens) (UniProt Q99808+Q7RTT9+Q14542+Q9BZD2)", "sequence (Q14542 whole entry, looked up)": "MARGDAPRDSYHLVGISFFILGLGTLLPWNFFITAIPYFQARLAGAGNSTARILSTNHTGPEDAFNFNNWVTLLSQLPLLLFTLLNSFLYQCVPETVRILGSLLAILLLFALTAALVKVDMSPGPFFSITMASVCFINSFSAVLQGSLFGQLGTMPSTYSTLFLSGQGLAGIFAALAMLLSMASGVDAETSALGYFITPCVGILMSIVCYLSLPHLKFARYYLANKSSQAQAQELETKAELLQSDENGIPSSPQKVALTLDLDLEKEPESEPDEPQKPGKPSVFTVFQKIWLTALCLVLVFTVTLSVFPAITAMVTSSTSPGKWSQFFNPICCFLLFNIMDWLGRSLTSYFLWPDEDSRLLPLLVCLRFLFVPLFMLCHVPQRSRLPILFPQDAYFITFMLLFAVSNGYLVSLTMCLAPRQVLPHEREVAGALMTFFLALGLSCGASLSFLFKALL", "sequence (Q7RTT9 whole entry, looked up)": "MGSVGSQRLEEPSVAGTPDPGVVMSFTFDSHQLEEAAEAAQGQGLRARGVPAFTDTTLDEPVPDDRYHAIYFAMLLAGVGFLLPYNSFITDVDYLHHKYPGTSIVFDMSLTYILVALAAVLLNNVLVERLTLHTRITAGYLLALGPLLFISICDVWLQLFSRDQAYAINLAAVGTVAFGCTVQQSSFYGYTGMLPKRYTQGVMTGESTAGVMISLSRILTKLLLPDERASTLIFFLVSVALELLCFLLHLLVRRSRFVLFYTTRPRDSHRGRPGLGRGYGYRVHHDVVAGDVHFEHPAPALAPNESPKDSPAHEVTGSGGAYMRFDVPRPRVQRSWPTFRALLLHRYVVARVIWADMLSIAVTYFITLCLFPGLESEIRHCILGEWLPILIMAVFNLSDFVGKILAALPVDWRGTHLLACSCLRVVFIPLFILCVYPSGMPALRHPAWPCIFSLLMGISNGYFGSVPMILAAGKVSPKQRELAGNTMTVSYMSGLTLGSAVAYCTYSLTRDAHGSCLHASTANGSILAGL", "sequence (Q99808 whole entry, looked up)": "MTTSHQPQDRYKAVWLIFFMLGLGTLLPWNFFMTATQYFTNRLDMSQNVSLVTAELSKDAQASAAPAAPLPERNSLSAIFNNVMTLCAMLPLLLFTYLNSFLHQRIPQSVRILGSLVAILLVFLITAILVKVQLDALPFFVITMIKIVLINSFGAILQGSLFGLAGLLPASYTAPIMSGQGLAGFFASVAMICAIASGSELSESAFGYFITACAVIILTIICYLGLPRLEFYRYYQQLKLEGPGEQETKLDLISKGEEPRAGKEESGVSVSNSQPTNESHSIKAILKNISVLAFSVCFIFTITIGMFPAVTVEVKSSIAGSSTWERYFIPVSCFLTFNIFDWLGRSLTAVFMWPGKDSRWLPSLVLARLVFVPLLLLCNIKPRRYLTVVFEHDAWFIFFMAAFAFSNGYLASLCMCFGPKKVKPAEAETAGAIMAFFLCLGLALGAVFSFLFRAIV", "sequence (Q9BZD2 whole entry, looked up)": "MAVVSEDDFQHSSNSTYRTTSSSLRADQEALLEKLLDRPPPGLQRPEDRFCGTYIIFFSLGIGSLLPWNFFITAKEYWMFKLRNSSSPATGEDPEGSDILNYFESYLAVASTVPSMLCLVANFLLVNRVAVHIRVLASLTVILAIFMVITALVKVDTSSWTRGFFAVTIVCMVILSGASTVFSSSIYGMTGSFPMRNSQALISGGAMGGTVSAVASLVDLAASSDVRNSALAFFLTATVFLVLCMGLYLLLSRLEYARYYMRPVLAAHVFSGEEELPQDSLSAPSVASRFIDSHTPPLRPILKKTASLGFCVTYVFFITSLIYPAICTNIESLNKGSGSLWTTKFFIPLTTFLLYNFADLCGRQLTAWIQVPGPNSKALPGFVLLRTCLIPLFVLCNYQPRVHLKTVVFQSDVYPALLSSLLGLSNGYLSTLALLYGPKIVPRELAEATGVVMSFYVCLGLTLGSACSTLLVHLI", "assay": "Inhibition of Transporter, Adenosine at 10.0 µM in the Eurofins-Panlabs selectivity screen", "assay_type": "protein assay", "conditions": "Compound concentration 10.0 uM"}, "[11]": {"target": "Beta-3 adrenergic receptor (Homo sapiens) (UniProt P13945)", "sequence (P13945 whole entry, looked up)": "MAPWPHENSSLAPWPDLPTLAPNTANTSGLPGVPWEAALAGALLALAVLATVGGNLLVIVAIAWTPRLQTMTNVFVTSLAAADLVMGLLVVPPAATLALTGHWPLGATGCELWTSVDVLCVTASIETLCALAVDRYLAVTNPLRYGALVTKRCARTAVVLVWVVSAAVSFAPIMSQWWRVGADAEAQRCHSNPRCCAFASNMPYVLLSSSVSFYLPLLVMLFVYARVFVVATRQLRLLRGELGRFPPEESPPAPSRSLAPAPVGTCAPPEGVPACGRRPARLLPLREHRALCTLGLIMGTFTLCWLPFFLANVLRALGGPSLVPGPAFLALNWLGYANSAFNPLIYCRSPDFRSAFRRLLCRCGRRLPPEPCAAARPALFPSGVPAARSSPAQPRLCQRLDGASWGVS", "assay": "Inhibition of Adrenergic beta3 at 10.0 µM in the Eurofins-Panlabs selectivity screen", "conditions": "Compound concentration 10.0 uM"}, "[12]": {"target": "B1 bradykinin receptor (Homo sapiens) (UniProt P46663)", "assay": "Inhibition of Bradykinin B1 at 10.0 µM in the Eurofins-Panlabs selectivity screen", "conditions": "Compound concentration 10.0 uM"}, "[13]": {"target": "B2 bradykinin receptor (Homo sapiens) (UniProt P30411)", "assay": "Inhibition of Bradykinin B2 at 10.0 µM in the Eurofins-Panlabs selectivity screen", "conditions": "Compound concentration 10.0 uM"}, "[14]": {"target": "Cannabinoid receptor 1 (Homo sapiens) (UniProt P21554)", "assay": "Inhibition of Cannabinoid CB1 at 10.0 µM in the Eurofins-Panlabs selectivity screen", "conditions": "Compound concentration 10.0 uM"}, "[15]": {"target": "Cannabinoid receptor 2 (Homo sapiens) (UniProt P34972)", "assay": "Inhibition of Cannabinoid CB2 at 10.0 µM in the Eurofins-Panlabs selectivity screen", "conditions": "Compound concentration 10.0 uM"}, "[16]": {"target": "D(1A) dopamine receptor (Homo sapiens) (UniProt P21728)", "assay": "Inhibition of Dopamine D1 at 10.0 µM in the Eurofins-Panlabs selectivity screen", "conditions": "Compound concentration 10.0 uM"}, "[17]": {"target": "D(2) dopamine receptor (Homo sapiens) (UniProt P14416)", "sequence (P14416 whole entry)": "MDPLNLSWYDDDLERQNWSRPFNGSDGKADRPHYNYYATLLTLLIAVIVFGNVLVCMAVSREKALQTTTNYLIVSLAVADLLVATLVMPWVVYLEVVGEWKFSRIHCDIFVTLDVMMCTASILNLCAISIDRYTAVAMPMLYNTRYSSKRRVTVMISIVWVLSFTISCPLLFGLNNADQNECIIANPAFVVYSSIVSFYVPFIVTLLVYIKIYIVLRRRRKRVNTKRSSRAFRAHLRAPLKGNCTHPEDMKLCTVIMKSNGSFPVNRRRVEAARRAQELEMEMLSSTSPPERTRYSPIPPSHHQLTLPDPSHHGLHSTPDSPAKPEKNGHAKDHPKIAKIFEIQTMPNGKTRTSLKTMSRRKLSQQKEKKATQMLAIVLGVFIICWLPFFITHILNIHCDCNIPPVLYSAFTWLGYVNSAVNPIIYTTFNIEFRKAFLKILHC", "assay": "Inhibition of Dopamine D2L at 10.0 µM in the Eurofins-Panlabs selectivity screen", "conditions": "Compound concentration 10.0 uM"}, "[18]": {"target": "D(2) dopamine receptor (Homo sapiens) (UniProt P14416)", "assay": "Inhibition of Dopamine D2S at 10.0 µM in the Eurofins-Panlabs selectivity screen", "conditions": "Compound concentration 10.0 uM"}, "[19]": {"target": "Endothelin-1 receptor (Homo sapiens) (UniProt P25101)", "sequence (P25101 whole entry)": "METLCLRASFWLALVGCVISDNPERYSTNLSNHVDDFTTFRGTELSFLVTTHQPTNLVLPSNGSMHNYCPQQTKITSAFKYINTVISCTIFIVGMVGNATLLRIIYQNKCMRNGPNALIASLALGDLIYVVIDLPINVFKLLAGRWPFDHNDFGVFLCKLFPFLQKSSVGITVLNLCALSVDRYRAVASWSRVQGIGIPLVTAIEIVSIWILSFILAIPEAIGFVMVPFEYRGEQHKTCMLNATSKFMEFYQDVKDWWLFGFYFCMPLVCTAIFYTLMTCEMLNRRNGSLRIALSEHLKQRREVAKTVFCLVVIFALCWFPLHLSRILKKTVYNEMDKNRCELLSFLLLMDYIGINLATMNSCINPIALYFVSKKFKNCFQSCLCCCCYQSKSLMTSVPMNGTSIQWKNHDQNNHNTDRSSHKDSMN", "assay": "Inhibition of Endothelin ETA at 10.0 µM in the Eurofins-Panlabs selectivity screen", "conditions": "Compound concentration 10.0 uM"}, "[20]": {"target": "T1, GABA-A receptor; anion channel (Rattus norvegicus) (UniProt O09028+P15431+P18506+P18508+P19969+P20236+P23574+P23576+P28471+P28473+P30191+P62813+P63079+P63138+Q91ZM7+Q9ES14)", "assay": "Inhibition of GABAA, Flunitrazepam, Central at 10.0 µM in the Eurofins-Panlabs selectivity screen", "assay_type": "protein-complex assay", "conditions": "Compound concentration 10.0 uM"}, "[21]": {"target": "T1, GABA-A receptor; anion channel (Rattus norvegicus)", "assay": "Inhibition of GABAA, Chloride Channel, TBOB at 10.0 µM in the Eurofins-Panlabs selectivity screen", "assay_type": "protein-complex assay", "conditions": "Compound concentration 10.0 uM"}, "[22]": {"target": "Gamma-aminobutyric acid type B receptor subunit 1 (Homo sapiens) (UniProt Q9UBS5)", "assay": "Inhibition of GABAB, Non-Selective at 10.0 µM in the Eurofins-Panlabs selectivity screen", "conditions": "Rattus norvegicus; Compound concentration 10.0 uM"}, "[23]": {"target": "Glutamate receptor ionotropic, kainate (Rattus norvegicus) (UniProt P22756+Q01812+P42260+P42264+Q63273)", "assay": "Inhibition of Glutamate, Kainate at 10.0 µM in the Eurofins-Panlabs selectivity screen", "assay_type": "protein-complex assay", "conditions": "Compound concentration 10.0 uM"}, "[24]": {"target": "Glutamate NMDA receptor (Rattus norvegicus) (UniProt P35439+Q00959+Q00960+Q00961+Q62645+Q8VHN2+Q9R1M7)", "assay": "Inhibition of Glutamate, NMDA, Glycine at 10.0 µM in the Eurofins-Panlabs selectivity screen", "assay_type": "protein-complex assay", "conditions": "Compound concentration 10.0 uM"}, "[25]": {"target": "Histamine H1 receptor (Homo sapiens) (UniProt P35367)", "assay": "Inhibition of Histamine H1 at 10.0 µM in the Eurofins-Panlabs selectivity screen", "conditions": "Compound concentration 10.0 uM"}, "[26]": {"target": "Histamine H2 receptor (Homo sapiens) (UniProt P25021)", "assay": "Inhibition of Histamine H2 at 10.0 µM in the Eurofins-Panlabs selectivity screen", "conditions": "Compound concentration 10.0 uM"}, "[27]": {"target": "Histamine H3 receptor (Homo sapiens) (UniProt Q9Y5N1)", "assay": "Inhibition of Histamine H3 at 10.0 µM in the Eurofins-Panlabs selectivity screen", "conditions": "Compound concentration 10.0 uM"}, "[28]": {"target": "Insulin receptor (Homo sapiens) (UniProt P06213)", "assay": "Inhibition of Insulin at 10.0 µM in the Eurofins-Panlabs selectivity screen", "conditions": "Rattus norvegicus; Compound concentration 10.0 uM"}, "[29]": {"target": "Motilin receptor (Homo sapiens) (UniProt O43193)", "assay": "Inhibition of Motilin at 10.0 µM in the Eurofins-Panlabs selectivity screen", "conditions": "Compound concentration 10.0 uM"}, "[30]": {"target": "Muscarinic acetylcholine receptor M2 (Homo sapiens) (UniProt P08172)", "assay": "Inhibition of Muscarinic M2 at 10.0 µM in the Eurofins-Panlabs selectivity screen", "conditions": "Compound concentration 10.0 uM"}, "[31]": {"target": "Neuronal acetylcholine receptor; alpha3/beta4 (Homo sapiens) (UniProt P30926+P32297)", "assay": "Inhibition of Nicotinic Acetylcholine alpha3beta4 at 10.0 µM in the Eurofins-Panlabs selectivity screen", "assay_type": "protein-complex assay", "conditions": "Compound concentration 10.0 uM"}, "[32]": {"target": "Delta-type opioid receptor (Homo sapiens) (UniProt P41143)", "sequence (P41143 whole entry)": "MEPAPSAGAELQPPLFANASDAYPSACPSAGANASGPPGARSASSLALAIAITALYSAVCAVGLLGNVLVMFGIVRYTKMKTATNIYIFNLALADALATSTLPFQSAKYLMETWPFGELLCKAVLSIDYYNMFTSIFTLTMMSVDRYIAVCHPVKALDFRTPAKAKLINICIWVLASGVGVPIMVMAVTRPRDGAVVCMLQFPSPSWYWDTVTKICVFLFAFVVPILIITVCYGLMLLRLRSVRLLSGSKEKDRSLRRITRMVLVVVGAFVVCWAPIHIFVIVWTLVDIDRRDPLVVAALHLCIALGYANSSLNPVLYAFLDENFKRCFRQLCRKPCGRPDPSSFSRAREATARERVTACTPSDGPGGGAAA", "assay": "Inhibition of Opiate delta1 (OP1, DOP) at 10.0 µM in the Eurofins-Panlabs selectivity screen", "conditions": "Compound concentration 10.0 uM"}, "[33]": {"target": "Kappa-type opioid receptor (Homo sapiens) (UniProt P41145)", "assay": "Inhibition of Opiate kappa (OP2, KOP) at 10.0 µM in the Eurofins-Panlabs selectivity screen", "conditions": "Compound concentration 10.0 uM"}, "[34]": {"target": "Sodium-dependent serotonin transporter (Homo sapiens) (UniProt P31645)", "assay": "Inhibition of Transporter, Serotonin (5-Hydroxytryptamine) (SERT) at 10.0 µM in the Eurofins-Panlabs selectivity screen", "conditions": "Compound concentration 10.0 uM"}}, "note": "Activity calls are given as the source filed them. No cut-off for these calls is given here.", "data": [{"smiles": "Cn1nccc1[C@]1(CNC(=O)c2ccc(F)c(F)c2-c2ccc(C(F)(F)F)cc2)NC(=O)NC1=O", "values": [{"measurement": "IC50", "setting": "[1]", "result": "0.006 µM (active)"}, {"measurement": "IC50", "setting": "[2]", "result": 9.92, "unit": "µM"}, {"measurement": "IC50", "setting": "[3]", "result": 5.77, "unit": "µM"}, {"measurement": "IC50", "setting": "[4]", "result": 5.38, "unit": "µM"}, {"measurement": "inhibition", "setting": "[5]", "result": -4, "unit": "%"}, {"measurement": "inhibition", "setting": "[6]", "result": -5, "unit": "%"}, {"measurement": "inhibition", "setting": "[7]", "result": -5, "unit": "%"}, {"measurement": "inhibition", "setting": "[8]", "result": 11, "unit": "%"}, {"measurement": "inhibition", "setting": "[9]", "result": 3, "unit": "%"}, {"measurement": "inhibition", "setting": "[10]", "result": 11, "unit": "%"}, {"measurement": "inhibition", "setting": "[11]", "result": -3, "unit": "%"}, {"measurement": "inhibition", "setting": "[12]", "result": 1, "unit": "%"}, {"measurement": "inhibition", "setting": "[13]", "result": -6, "unit": "%"}, {"measurement": "inhibition", "setting": "[14]", "result": -3, "unit": "%"}, {"measurement": "inhibition", "setting": "[15]", "result": -1, "unit": "%"}, {"measurement": "inhibition", "setting": "[16]", "result": -1, "unit": "%"}, {"measurement": "inhibition", "setting": "[17]", "result": 2, "unit": "%"}, {"measurement": "inhibition", "setting": "[18]", "result": 0, "unit": "%"}, {"measurement": "inhibition", "setting": "[19]", "result": 2, "unit": "%"}, {"measurement": "inhibition", "setting": "[20]", "result": -6, "unit": "%"}, {"measurement": "inhibition", "setting": "[21]", "result": 0, "unit": "%"}, {"measurement": "inhibition", "setting": "[22]", "result": 3, "unit": "%"}, {"measurement": "inhibition", "setting": "[23]", "result": 12, "unit": "%"}, {"measurement": "inhibition", "setting": "[24]", "result": -4, "unit": "%"}, {"measurement": "inhibition", "setting": "[25]", "result": -1, "unit": "%"}, {"measurement": "inhibition", "setting": "[26]", "result": 16, "unit": "%"}, {"measurement": "inhibition", "setting": "[27]", "result": 6, "unit": "%"}, {"measurement": "inhibition", "setting": "[28]", "result": -8, "unit": "%"}, {"measurement": "inhibition", "setting": "[29]", "result": 3, "unit": "%"}, {"measurement": "inhibition", "setting": "[30]", "result": 1, "unit": "%"}, {"measurement": "inhibition", "setting": "[31]", "result": 2, "unit": "%"}, {"measurement": "inhibition", "setting": "[32]", "result": 18, "unit": "%"}, {"measurement": "inhibition", "setting": "[33]", "result": -4, "unit": "%"}, {"measurement": "inhibition", "setting": "[34]", "result": 10, "unit": "%"}]}]}
